Assay results reported in the NIST ThermoML archive (doi:10.1016/j.jct.2008.09.018).

Key:
[1] = Liquid; for mass density: Vibrating tube method; for speed of sound: Pulse-echo method; for viscosity: Capillary tube (Ostwald / Ubbelohde) method
[2] = refractive index (Na D-line) (dimensionless); details: 298.15 K; 101.33 kPa; Liquid; Standard Abbe refractometry
[3] = xn = mol fraction of the nth substance listed; details: 101 kPa, Liquid, x1 = 1; for speed of sound: Pulse-echo method; for viscosity: Capillary tube (Ostwald / Ubbelohde) method; for mass density: Vibrating tube method

OCCO [1,2-ethanediol]
[1]
Details | mass density [kg/m3] | speed of sound [m/s] | viscosity [mPa·s]
283.15 K, 101.33 kPa | 1120.32 | – | –
285.64 K, 101.33 kPa | 1118.6 | – | –
290.64 K, 101.33 kPa | 1115.12 | – | –
293.14 K, 101.33 kPa | 1113.37 | – | –
293.15 K, 101 kPa | – | 1666.7 | –
295.64 K, 101.33 kPa | 1111.62 | – | –
298.15 K, 101.33 kPa | – | 1654.9 | 16.95
300.65 K, 101.33 kPa | 1108.12 | – | –
303.15 K, 101 kPa | 1106.46 | 1643.1 | 13.83
303.15 K, 101.33 kPa | 1106.37 | – | –
305.64 K, 101.33 kPa | 1104.61 | – | –
308.15 K, 101 kPa | – | 1631.2 | 11.44
310.65 K, 101.33 kPa | 1101.07 | – | –
313.14 K, 101.33 kPa | 1099.3 | – | –
313.15 K, 101 kPa | 1099.23 | 1619.3 | 9.565
315.65 K, 101.33 kPa | 1097.52 | – | –
320.64 K, 101.33 kPa | 1093.95 | – | –
323.15 K, 101.33 kPa | 1092.15 | – | –

Details | refractive index
[2] | 1.4307

OCCO [1,2-ethanediol] + CCCCCCCCCO
[3]
Details | mass density [kg/m3] | speed of sound [m/s] | viscosity [mPa·s]
293.15 K | – | 1666.7 | –
298.15 K | – | 1654.9 | 16.95
303.15 K | 1106.46 | 1643.1 | 13.83
308.15 K | – | 1631.2 | 11.44
313.15 K | 1099.23 | 1619.3 | 9.565

CCCCCCCCCO [nonan-1-ol]
[1]
Details | mass density [kg/m3] | speed of sound [m/s] | viscosity [mPa·s]
283.15 K, 101.33 kPa | 834.614 | – | –
285.64 K, 101.33 kPa | 832.923 | – | –
288.15 K, 101.33 kPa | 831.224 | – | –
290.65 K, 101.33 kPa | 829.521 | – | –
293.14 K, 101.33 kPa | 827.816 | – | –
293.15 K, 101 kPa | – | 1381.6 | –
295.64 K, 101.33 kPa | 826.106 | – | –
298.14 K, 101.33 kPa | 824.391 | – | –
298.15 K, 101.33 kPa | 824.48 | 1364.4 | 9.494
300.65 K, 101.33 kPa | 822.671 | – | –
303.14 K, 101.33 kPa | 820.949 | – | –
303.15 K, 101 kPa | 821.05 | 1347.4 | 7.994
305.64 K, 101.33 kPa | 819.22 | – | –
308.14 K, 101.33 kPa | 817.486 | – | –
308.15 K, 101 kPa | 817.57 | 1330.5 | 6.713
310.64 K, 101.33 kPa | 815.748 | – | –
313.15 K, 101 kPa | 814.19 | 1313.6 | 5.657
313.15 K, 101.33 kPa | 814.001 | – | –
315.65 K, 101.33 kPa | 812.251 | – | –
318.15 K, 101.33 kPa | 810.496 | – | –
320.65 K, 101.33 kPa | 808.73 | – | –
323.15 K, 101.33 kPa | 806.96 | – | –

Details | refractive index
[2] | 1.4323
